Assay results from paper PMC8151276, “An Integrated Approach toward NanoBRET Tracers for Analysis of GPCR Ligand Engagement” (Molecules, 2021).

Key:
Assay type in all cases: binding
[1] = target: T1, AVPR2 (Homo sapiens, UniProt P30518); assay: NanoBRET screen HiBiT-AVPR2 in HEK293
T1 construct: purchased Promega (in-house HiBiT-GPCR construct library, NanoBRET)
Method: (§1) Each tracer candidate was screened across the entire library of HiBiT-GPCR constructs using NanoBRET as the detection modality. As depicted in Figure 4A, the specificity of interactions was evaluated through decrease in BRET due to competitive displacement of a bound tracer by excess parental compound. Each tracer was analyzed for binding to each HiBiT-GPCR fusion in the absence and in the presence of competing parental compound. Briefly, HEK293 cells were transfected with HiBiT-GPCR constructs diluted into promoterless DNA to reduce expression and maximize translocation to the cell surface. Each tracer candidate was then screened at concentrations of 1 μM and 0.1 μM across cells expressing these fusions. Cells were treated for 1.5 h with tracer either alone or in the presence of 20 μM competing parental compound (i.e., control). BRET was measured upon addition of purified LgBiT and subsequent complementation with HiBiT genetically fused to a GPCR. The specificity of interactions was assessed through a decrease in BRET signal due to competitive displacement of the bound tracer. To further gauge the robustness of these interactions, the fold response over the control (i.e., BRETtracer/BRETcontrol) was calculated. We chose a 1.5-fold response, which translates to ≥7-fold signal over noise as the minimal threshold required to score an interaction as positive. […]. Below we highlight the screening results obtained for our exemplary fluorescent tracers based on Clozapine, Amitriptyline and AZD1283.
(§2) HiBiT-GPCR DNA constructs were diluted in 10 mM Tris pH 8 to a final concentration of 0.01 μg/μL, arrayed in 96-well plates and stored at −20 °C. For transfection, HEK293 cells were suspended in Opti-MEM (without phenol red) supplemented with 2% fetal bovine serum (Seradigm) and 100 units/mL penicillin–streptomycin (Gibco) at a final concentration of 220,000 cells/mL and dispensed into white 96-well plates at 90 μL/well. Subsequent transfections and screens were carried using an Agilent Bravo Automated Liquid Handling Platform. First, the 96-well HiBiT DNA arrays were diluted 25-fold in Opti-MEM (without serum or phenol red) to a final concentration of 0.0004 μg/μL and 20 μL of the diluted DNAs were transferred into new 96-well plates. Next, promoterless carrier DNA (1 μg/μL) was diluted 25-fold (0.04 μg/μL) and then dispensed into the diluted arrays at 20 μL/well. Following brief mixing, Viafect transfection reagent (Promega) diluted 16-fold into Opti-MEM was dispensed into the plates at 40 μL/well. After mixing by pipetting, plates were incubated for 10 min on the pipetting station deck. The DNA-transfection reagent complexes were then added to plates containing cells. To facilitate the screen, 10 μL of DNA-transfection reagent complexes were added in duplicates to the top 4 and bottom 4 rows, resulting in two identical 48-well arrays per plate. Plates with transfected cells were incubated for 18–20 h at 37 °C/5% CO2. A screen of each tracer across the entire library using two different concentrations requires duplicate plates of transfected cells. Depending on the number of tracers being screened, transfections can be scaled up using the same ratios. The next day, for each tracer, four 20× screening solutions in tracer dilution buffer (Promega) were prepared: two duplicates at final concentration of 20 μM and two duplicates at a final concentration of 2 μM. A competing unmodified compound was added to one of each duplicate at a final concentration of 400 μM. The four resulting solutions were diluted 4-fold in Opti-MEM without serum or phenol red to generate 5× solutions (5 µM and 0.5 µM tracer +/− 100 μM competing compound). To screen the library, a BioTek MultiFlo FX liquid dispenser was used to dispense 22.5 µL of tracer solution to the top 4 rows and 22.5 µL tracer + competing compound solution to the 4 bottom rows. Plates were briefly mixed on an orbital shaker and incubated for 1.5 h at room temperature. […]

[2] = target: T2, P2RY1 (Homo sapiens, UniProt P47900); assay: NanoBRET screen HiBiT-P2RY1 in HEK293
T2 construct: purchased Promega (in-house HiBiT-GPCR construct library, NanoBRET)
Method: as §1, §2

[3] = target: T3, P2RY2 (Homo sapiens, UniProt P41231); assay: NanoBRET screen HiBiT-P2RY2 in HEK293
T3 construct: purchased Promega (in-house HiBiT-GPCR construct library, NanoBRET)
Method: as §1, §2

[4] = target: T4, P2RY10 (Homo sapiens, UniProt O00398); assay: NanoBRET screen HiBiT-P2RY10 in HEK293
T4 construct: purchased Promega (in-house HiBiT-GPCR construct library, NanoBRET)
Method: as §1, §2

[5] = target: T5, PDGFRB (Homo sapiens, UniProt P09619); assay: NanoBRET screen HiBiT-PDGFRB in HEK293
T5 construct: purchased Promega (in-house HiBiT-GPCR construct library, NanoBRET)
Method: as §1, §2

[6] = target: T6, F2RL3 (Homo sapiens, UniProt Q96RI0); assay: NanoBRET screen HiBiT-F2RL3 in HEK293
T6 construct: purchased Promega (in-house HiBiT-GPCR construct library, NanoBRET)
T6 sequence (Q96RI0 18-385): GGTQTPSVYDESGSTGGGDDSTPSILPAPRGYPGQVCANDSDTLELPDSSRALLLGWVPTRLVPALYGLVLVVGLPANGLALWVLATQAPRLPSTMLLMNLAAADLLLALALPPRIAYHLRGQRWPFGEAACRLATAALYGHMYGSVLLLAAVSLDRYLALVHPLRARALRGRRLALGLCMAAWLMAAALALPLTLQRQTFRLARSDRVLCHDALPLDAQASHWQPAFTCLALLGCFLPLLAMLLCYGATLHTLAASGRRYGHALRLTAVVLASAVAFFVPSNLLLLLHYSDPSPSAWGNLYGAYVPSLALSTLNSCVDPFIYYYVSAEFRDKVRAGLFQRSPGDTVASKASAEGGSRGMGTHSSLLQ
Method: as §1, §2

[7] = target: T7, RXFP4 (Homo sapiens, UniProt Q8TDU9); assay: NanoBRET screen HiBiT-RXFP4 in HEK293
T7 construct: purchased Promega (in-house HiBiT-GPCR construct library, NanoBRET)
Method: as §1, §2

[8] = target: T8, GRM5 (Homo sapiens, UniProt P41594); assay: NanoBRET screen HiBiT-GRM5 in HEK293; details: GRM5
T8 construct: purchased Promega (in-house HiBiT-GPCR construct library, NanoBRET)
Method: as §1, §2

[9] = target: T9, CYSLTR2 (Homo sapiens, UniProt Q9NS75); assay: NanoBRET screen HiBiT-CYSLTR2 in HEK293; details: CYSLTR2
T9 construct: purchased Promega (in-house HiBiT-GPCR construct library, NanoBRET)
T9 sequence (Q9NS75 1-346): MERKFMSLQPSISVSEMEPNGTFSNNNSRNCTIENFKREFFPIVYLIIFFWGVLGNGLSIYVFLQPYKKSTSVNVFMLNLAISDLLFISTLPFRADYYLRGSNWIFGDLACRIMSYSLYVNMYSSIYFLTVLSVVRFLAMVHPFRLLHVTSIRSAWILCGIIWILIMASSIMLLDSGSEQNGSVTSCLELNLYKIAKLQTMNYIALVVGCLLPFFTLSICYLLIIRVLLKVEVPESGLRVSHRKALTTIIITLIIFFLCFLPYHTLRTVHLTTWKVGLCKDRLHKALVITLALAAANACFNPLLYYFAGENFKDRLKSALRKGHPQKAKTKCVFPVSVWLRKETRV
Method: as §1, §2

[10] = tracer at 0.1μM, listed as amitriptyline-b-2-NB590
[11] = tracer at 1μM, listed as amitriptyline-b-2-NB590

T7 sequence (Q8TDU9 whole entry): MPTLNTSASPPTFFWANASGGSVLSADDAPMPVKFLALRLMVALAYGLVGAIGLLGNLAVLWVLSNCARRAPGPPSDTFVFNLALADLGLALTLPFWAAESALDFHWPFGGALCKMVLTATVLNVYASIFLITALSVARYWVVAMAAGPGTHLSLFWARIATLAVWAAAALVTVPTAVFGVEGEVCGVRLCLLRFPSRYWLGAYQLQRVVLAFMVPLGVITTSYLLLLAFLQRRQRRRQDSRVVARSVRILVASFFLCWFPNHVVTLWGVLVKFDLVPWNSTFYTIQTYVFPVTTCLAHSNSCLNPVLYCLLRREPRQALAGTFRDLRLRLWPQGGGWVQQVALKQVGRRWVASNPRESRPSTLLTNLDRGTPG
T1 sequence (P30518 whole entry): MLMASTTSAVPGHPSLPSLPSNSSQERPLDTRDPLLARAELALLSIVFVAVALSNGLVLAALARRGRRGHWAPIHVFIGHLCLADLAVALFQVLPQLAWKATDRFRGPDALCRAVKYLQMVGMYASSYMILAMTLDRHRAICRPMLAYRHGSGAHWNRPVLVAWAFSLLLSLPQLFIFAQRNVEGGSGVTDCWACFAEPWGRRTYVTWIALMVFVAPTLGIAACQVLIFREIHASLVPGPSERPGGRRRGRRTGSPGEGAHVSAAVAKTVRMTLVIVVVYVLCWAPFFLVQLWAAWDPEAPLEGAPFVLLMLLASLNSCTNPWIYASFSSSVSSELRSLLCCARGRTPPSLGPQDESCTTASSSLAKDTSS
T8 sequence (P41594 21-1212): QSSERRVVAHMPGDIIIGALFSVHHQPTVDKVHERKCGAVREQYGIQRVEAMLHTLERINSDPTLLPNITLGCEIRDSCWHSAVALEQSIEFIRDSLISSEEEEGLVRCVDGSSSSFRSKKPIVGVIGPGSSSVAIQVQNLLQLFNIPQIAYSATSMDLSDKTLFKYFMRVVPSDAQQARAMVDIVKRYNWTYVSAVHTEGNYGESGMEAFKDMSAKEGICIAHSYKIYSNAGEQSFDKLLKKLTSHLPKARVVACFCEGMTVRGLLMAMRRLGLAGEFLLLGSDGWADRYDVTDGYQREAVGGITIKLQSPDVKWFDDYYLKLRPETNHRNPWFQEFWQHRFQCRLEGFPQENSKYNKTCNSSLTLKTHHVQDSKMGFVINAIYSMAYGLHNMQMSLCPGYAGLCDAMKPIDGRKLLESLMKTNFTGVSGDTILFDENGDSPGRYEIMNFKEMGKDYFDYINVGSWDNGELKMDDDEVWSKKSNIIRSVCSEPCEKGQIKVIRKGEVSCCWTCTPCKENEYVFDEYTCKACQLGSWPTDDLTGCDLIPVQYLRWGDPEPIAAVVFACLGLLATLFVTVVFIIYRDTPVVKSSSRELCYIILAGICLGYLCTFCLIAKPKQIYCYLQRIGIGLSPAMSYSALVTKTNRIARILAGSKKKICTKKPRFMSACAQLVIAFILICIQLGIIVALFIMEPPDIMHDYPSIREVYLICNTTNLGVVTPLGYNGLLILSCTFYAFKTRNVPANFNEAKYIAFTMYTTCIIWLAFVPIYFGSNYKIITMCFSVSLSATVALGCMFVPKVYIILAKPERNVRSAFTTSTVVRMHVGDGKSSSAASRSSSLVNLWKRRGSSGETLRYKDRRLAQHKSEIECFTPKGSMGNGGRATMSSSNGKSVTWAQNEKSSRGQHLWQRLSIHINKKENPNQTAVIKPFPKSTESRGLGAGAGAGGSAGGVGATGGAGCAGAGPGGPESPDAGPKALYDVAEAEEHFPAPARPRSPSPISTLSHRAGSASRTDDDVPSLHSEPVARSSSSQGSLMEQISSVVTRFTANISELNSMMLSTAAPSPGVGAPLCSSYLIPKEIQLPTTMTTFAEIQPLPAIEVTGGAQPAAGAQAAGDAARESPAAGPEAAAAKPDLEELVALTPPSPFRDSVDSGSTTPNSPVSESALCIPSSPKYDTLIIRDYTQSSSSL
T2 sequence (P47900 whole entry): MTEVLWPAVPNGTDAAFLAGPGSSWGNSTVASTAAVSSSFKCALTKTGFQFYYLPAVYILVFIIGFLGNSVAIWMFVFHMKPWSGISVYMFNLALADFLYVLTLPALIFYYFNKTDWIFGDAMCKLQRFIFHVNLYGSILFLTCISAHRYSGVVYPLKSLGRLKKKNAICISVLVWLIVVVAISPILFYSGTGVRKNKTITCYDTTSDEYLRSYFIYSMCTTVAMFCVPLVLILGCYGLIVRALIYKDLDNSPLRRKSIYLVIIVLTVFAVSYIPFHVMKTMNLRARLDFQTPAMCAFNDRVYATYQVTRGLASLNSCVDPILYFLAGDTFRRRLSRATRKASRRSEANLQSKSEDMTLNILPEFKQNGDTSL
T3 sequence (P41231 whole entry): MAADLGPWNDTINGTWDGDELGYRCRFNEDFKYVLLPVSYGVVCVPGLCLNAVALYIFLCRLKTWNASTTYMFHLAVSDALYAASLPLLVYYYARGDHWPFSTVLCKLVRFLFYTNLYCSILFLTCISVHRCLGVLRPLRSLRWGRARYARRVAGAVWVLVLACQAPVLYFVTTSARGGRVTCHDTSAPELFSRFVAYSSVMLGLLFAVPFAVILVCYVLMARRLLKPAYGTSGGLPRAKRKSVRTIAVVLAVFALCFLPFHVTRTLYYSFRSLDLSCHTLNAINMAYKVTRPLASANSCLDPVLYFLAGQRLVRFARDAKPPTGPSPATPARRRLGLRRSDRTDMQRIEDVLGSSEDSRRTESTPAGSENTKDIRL
T5 sequence (P09619 33-1106): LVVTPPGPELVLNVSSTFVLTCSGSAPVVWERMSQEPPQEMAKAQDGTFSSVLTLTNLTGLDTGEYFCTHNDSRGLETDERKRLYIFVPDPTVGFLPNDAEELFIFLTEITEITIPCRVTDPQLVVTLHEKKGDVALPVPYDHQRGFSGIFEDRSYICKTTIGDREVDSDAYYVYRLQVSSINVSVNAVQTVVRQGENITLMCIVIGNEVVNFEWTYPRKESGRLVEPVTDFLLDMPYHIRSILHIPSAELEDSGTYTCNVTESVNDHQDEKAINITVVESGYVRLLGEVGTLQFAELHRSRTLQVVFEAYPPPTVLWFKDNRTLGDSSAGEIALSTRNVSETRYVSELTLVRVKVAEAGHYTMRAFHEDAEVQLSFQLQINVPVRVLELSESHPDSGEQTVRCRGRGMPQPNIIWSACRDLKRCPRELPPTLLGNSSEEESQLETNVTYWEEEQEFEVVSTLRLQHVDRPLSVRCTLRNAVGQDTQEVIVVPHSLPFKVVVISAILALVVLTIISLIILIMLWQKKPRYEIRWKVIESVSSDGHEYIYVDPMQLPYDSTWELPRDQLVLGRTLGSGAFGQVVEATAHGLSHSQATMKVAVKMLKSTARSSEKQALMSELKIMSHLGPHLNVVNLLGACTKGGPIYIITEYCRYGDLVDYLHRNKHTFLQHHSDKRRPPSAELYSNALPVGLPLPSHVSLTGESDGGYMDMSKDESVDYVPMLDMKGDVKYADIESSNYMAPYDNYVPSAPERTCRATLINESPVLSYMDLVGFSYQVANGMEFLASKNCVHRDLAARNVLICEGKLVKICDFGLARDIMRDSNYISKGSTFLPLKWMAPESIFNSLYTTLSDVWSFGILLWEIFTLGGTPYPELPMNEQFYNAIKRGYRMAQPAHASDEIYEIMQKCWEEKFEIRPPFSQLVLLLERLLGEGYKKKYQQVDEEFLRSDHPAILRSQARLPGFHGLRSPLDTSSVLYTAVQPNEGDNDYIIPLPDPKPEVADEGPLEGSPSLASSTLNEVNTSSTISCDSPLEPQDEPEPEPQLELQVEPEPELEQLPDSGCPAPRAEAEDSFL
T4 sequence (O00398 whole entry, one chain of several): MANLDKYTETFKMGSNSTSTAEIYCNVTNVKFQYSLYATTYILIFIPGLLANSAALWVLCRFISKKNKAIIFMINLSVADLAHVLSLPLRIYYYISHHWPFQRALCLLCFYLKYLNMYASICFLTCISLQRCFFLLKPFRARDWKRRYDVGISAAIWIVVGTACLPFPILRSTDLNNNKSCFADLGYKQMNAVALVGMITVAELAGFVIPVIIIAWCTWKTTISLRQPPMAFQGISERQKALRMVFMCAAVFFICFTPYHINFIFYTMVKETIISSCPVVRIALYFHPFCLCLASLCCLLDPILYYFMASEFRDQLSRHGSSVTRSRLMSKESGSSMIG

`CN1CCN(C2=Nc3cc(Cl)ccc3Nc3ccc(CNC(=O)CCOCCOCCOCCOCCNC(=O)CCc4ccc5n4[B-](F)(F)[N+]4=C(c6ccc[nH]6)C=CC4=C5)cc32)CC1` [Clozapine-b-2-NB590] was tested, and the “NanoBRET Fold Response” value ([1]; AVPR2, 0.1μM tracer) was 1.05, the “NanoBRET Fold Response” value ([1]; AVPR2, 1μM tracer) was 0.95 and the “NanoBRET Fold Response” value ([2]; P2RY1, 0.1μM tracer) was 1.03. For the same molecule, the “NanoBRET Fold Response” value ([2]; P2RY1, 1μM tracer) was 1.01, the “NanoBRET Fold Response” value ([3]; P2RY2, 0.1μM tracer) was 0.96 and the “NanoBRET Fold Response” value ([3]; P2RY2, 1μM tracer) was 1.00. For the same molecule, the “NanoBRET Fold Response” value ([4]; P2RY10, 0.1μM tracer) was 0.96, the “NanoBRET Fold Response” value ([4]; P2RY10, 1μM tracer) was 1.15 and the “NanoBRET Fold Response” value ([5]; PDGFRB, 0.1μM tracer) was 1.02. The “NanoBRET Fold Response” value ([5]; PDGFRB, 1μM tracer) was 0.99, the “NanoBRET Fold Response” value ([6]; F2RL3, 0.1μM tracer) was 0.99 and the “NanoBRET Fold Response” value ([6]; F2RL3, 1μM tracer) was 1.05. For the same molecule, the “NanoBRET Fold Response” value ([7]; RXFP4, 0.1μM tracer) was 0.97, the “NanoBRET Fold Response” value ([7]; RXFP4, 1μM tracer) was 1.01 and the “NanoBRET Fold Response” value ([8]; 0.1μM tracer) was 0.99. The “NanoBRET Fold Response” value ([8]; 1μM tracer) was 1.01, the “NanoBRET Fold Response” value ([9]; 0.1μM tracer) was 1.01 and the “NanoBRET Fold Response” value ([9]; 1μM tracer) was 1.03.

In the case of `CN(C)CCC=C1c2ccccc2CCc2ccc(C(=O)NCCNC(=O)CCOCCOCCOCCOCCNC(=O)CCc3ccc4n3[B-](F)(F)[N+]3=C(c5ccc[nH]5)C=CC3=C4)cc21` [Amitriptyline-b-2-NB590], the “NanoBRET Fold Response” value [1, 10] was 1.13, the “NanoBRET Fold Response” value [1, 11] was 0.89 and the “NanoBRET Fold Response” value [2, 10] was 1.13. For the same molecule, the “NanoBRET Fold Response” value [3, 10] was 1.04, the “NanoBRET Fold Response” value [3, 11] was 0.92 and the “NanoBRET Fold Response” value [4, 10] was 1.14. The “NanoBRET Fold Response” value [4, 11] was 1.38, the “NanoBRET Fold Response” value ([5]; tracer at 0.1μM) was 0.97 and the “NanoBRET Fold Response” value [5, 11] was 0.99. The “NanoBRET Fold Response” value [6, 10] was 0.94, the “NanoBRET Fold Response” value [6, 11] was 1.04 and the “NanoBRET Fold Response” value [7, 10] was 1.07. The “NanoBRET Fold Response” value [7, 11] was 0.89, the “NanoBRET Fold Response” value ([8]; tracer 0.1μM) was 1.05 and the “NanoBRET Fold Response” value ([8]; tracer 1μM) was 1.02. For the same molecule, the “NanoBRET Fold Response” value ([9]; tracer 0.1μM) was 0.95 and the “NanoBRET Fold Response” value ([9]; tracer 1μM) was 1.04.

In the case of `CCOC(=O)c1cc(C#N)c(N2CCC(C(=O)NS(=O)(=O)Cc3ccccc3/C=C/C(=O)NCCNC(=O)CCc3ccc4n3[B-](F)(F)[N+]3=C(c5ccc[nH]5)C=CC3=C4)CC2)nc1C` [AZD1283-1-NB590], the “NanoBRET Fold Response” value ([1]; AVPR2, 0.1μM) was 1.03, the “NanoBRET Fold Response” value ([1]; AVPR2, 1μM) was 1.05 and the “NanoBRET Fold Response” value ([2]; P2RY1, 0.1μM) was 1.06. The “NanoBRET Fold Response” value ([2]; P2RY1, 1μM) was 1.05, the “NanoBRET Fold Response” value ([3]; P2RY2, 0.1μM) was 1.08 and the “NanoBRET Fold Response” value ([3]; P2RY2, 1μM) was 1.12. The “NanoBRET Fold Response” value ([4]; P2RY10, 0.1μM) was 1.35, the “NanoBRET Fold Response” value ([4]; P2RY10, 1μM) was 1.22 and the “NanoBRET Fold Response” value ([5]; PDGFRB, 0.1μM) was 1.10. The “NanoBRET Fold Response” value ([5]; PDGFRB, 1μM) was 1.16, the “NanoBRET Fold Response” value ([6]; F2RL3, 0.1μM) was 1.04 and the “NanoBRET Fold Response” value ([6]; F2RL3, 1μM) was 1.09. The “NanoBRET Fold Response” value ([7]; RXFP4, 0.1μM) was 1.02, the “NanoBRET Fold Response” value ([7]; RXFP4, 1μM) was 1.09 and the “NanoBRET Fold Response” value ([8]; 0.1μM) was 1.01. For the same molecule, the “NanoBRET Fold Response” value ([8]; 1μM) was 0.97, the “NanoBRET Fold Response” value ([9]; 0.1μM) was 1.07 and the “NanoBRET Fold Response” value ([9]; 1μM) was 0.97.
